Activity calls are given as the source filed them. The rule behind the calls is not given here.
Experiments:
[1] = Selectivity ratio of Ki for sigma-2 receptor in rat liver homogenates to Ki for sigma-1 receptor in guinea pig brain homogenates; assay type: tissue-based
[2] = Binding affinity to sigma-2 receptor in rat liver homogenates; assay type: tissue-based
RPMI-8226 [3] = assay: Cytotoxicity against human RPMI8226 cells assessed as cell viability after 72 hrs by MTT assay; assay type: functional, cell-based; conditions: for IC50: RPMI-8226, 72 h
[4] = Binding affinity to sigma-2 receptor in human MCF7 cells; assay type: cell-based
RPMI-8226 [5] = assay: Induction of apoptosis in human RPMI8226 cells assessed as dead cells at 36 uM after 48 hrs by annexin V-FITC/propidium iodide staining-based flow cytometric analysis in presence of apoptosis inhibitor 2,2'-methylenebis(1,3-cyclohexandione) relative to control; assay type: functional
RPMI-8226 [6] = assay: Induction of apoptosis in human RPMI8226 cells assessed as dead cells at 36 uM after 48 hrs by annexin V-FITC/propidium iodide staining-based flow cytometric analysis relative to control; assay type: functional
RPMI-8226 [7] = assay: Induction of apoptosis in human RPMI8226 cells at 36 uM after 48 hrs by annexin V-FITC/propidium iodide staining-based flow cytometric analysis in presence of caspase inhibitor z-VAD-FMK; assay type: functional, cell-based
RPMI-8226 [8] = assay: Induction of apoptosis in human RPMI8226 cells assessed as decrease in Bid protein expression at 36 uM up to 96 hrs by Western blotting analysis; assay type: functional, cell-based
RPMI-8226 [9] = assay: Induction of apoptosis in human RPMI8226 cells assessed as increase in Bcl2 protein expression at 36 uM by Western blotting analysis; assay type: functional, cell-based; conditions: TDE = time-dependent effect
RPMI-8226 [10] = assay: Induction of apoptosis in human RPMI8226 cells assessed as decrease in Bax protein expression at 36 uM by Western blotting analysis; assay type: functional, cell-based; conditions: TDE = time-dependent effect
RPMI-8226 [11] = assay: Induction of apoptosis in human RPMI8226 cells assessed as caspase-9 protein expression at 36 uM after 6 to 96 hrs by Western blotting analysis; assay type: functional, cell-based
RPMI-8226 [12] = assay: Induction of apoptosis in human RPMI8226 cells assessed as PARP-1 cleavage at 36 uM after 6 hrs by Western blotting analysis; assay type: functional, cell-based
RPMI-8226 [13] = assay: Induction of apoptosis in human RPMI8226 cells assessed as caspase-8 cleavage at 36 uM after 6 to 96 hrs by Western blotting analysis; assay type: functional, cell-based
RPMI-8226 [14] = assay: Induction of apoptosis in human RPMI8226 cells assessed as caspase-9 activation at 36 uM by flow cytometric analysis in presence of […]; assay type: functional, cell-based; conditions: TDE = time-dependent effect
RPMI-8226 [15] = assay: Induction of apoptosis in human RPMI8226 cells assessed as caspase-8 activation at 36 uM by flow cytometric analysis in presence of FITC-IETD-FMK; assay type: functional, cell-based; conditions: TDE = time-dependent effect
RPMI-8226 [16] = assay: Induction of apoptosis in human RPMI8226 cells assessed as caspase-3 activation at 36 uM by flow cytometric analysis in presence of […]; assay type: functional, cell-based; conditions: TDE = time-dependent effect
RPMI-8226 [17] = assay: Induction of apoptosis in human RPMI8226 cells assessed as chromatin condensation at 36 uM after 24 to 48 hrs by DAPI staining-based fluorescence microscopic analysis; assay type: functional, cell-based
RPMI-8226 [18] = assay: Induction of apoptosis in human RPMI8226 cells assessed as increase in apoptotic cells at 36 uM after 24 to 48 hrs by annexin V-FITC/propidium iodide staining-based flow cytometric analysis; assay type: functional, cell-based
RPMI-8226 [19] = assay: Induction of apoptosis in human RPMI8226 cells at 36 uM after 6 hrs by annexin V-FITC/propidium iodide staining-based flow cytometric analysis; assay type: functional, cell-based
HL-60 = assay: Cytotoxicity against human HL60 cells assessed as cell viability at 20 uM after 72 hrs by MTT assay; assay type: functional, cell-based
RPMI-8226 [20] = assay: Selectivity ratio of Ki for sigma-2 receptor in human RT4 cell homogenates to Ki for sigma-1 receptor in human RPMI8226 cells; assay type: cell-based
[21] = Displacement of [3H]-DTG from sigma-2 receptor in human RT4 cell homogenates in presence of (+)-pentazocine; assay type: tissue-based; conditions: rt-4
[22] = Displacement of [3H]-DTG from sigma-2 receptor in rat liver homogenates in presence of (+)-pentazocine; assay type: tissue-based
[23] = molecular target: Sigma non-opioid intracellular receptor 1 (Homo sapiens, UniProt Q99720); assay: Displacement of [3H]-(+)-pentazocine from sigma-1 receptor in human RPMI8226 cells; assay type: cell-based, RPMI-8226
Sigma non-opioid intracellular receptor 1 (Homo sapiens, UniProt Q99720), sequence (Q99720 whole entry): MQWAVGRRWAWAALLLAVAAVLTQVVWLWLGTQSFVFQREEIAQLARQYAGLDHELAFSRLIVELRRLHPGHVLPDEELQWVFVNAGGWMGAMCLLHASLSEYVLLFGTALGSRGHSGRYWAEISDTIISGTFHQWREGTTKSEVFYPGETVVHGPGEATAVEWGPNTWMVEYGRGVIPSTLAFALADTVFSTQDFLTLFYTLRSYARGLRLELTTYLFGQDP

[24] = molecular target: Sigma non-opioid intracellular receptor 1 (Cavia porcellus, UniProt Q60492); assay: Displacement of [3H]-(+)-pentazocine from sigma-1 receptor in guinea pig brain homogenates; assay type: tissue-based
Sigma non-opioid intracellular receptor 1 (Cavia porcellus, UniProt Q60492), sequence (Q60492 whole entry): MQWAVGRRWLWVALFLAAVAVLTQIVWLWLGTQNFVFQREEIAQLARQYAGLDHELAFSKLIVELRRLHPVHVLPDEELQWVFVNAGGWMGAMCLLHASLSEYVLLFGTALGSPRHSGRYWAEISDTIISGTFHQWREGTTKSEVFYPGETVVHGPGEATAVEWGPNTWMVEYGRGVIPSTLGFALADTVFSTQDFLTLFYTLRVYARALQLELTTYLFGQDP

RPMI-8226 [25] = assay: Induction of autophagy in human RPMI8226 cells assessed as […] at 36 uM by Western blotting analysis; assay type: functional, cell-based; conditions: TDE = time-dependent effect
RPMI-8226 [26] = assay: Induction of apoptosis in human RPMI8226 cells assessed as early apoptotic cells at 36 uM after 48 hrs by annexin V-FITC/propidium iodide staining-based flow cytometric analysis in presence of wortmannin; assay type: functional, cell-based
RPMI-8226 [27] = assay: Induction of apoptosis in human RPMI8226 cells assessed as early apoptotic cells at 36 uM after 48 hrs by annexin V-FITC/propidium iodide staining-based flow cytometric analysis; assay type: functional, cell-based
RPMI-8226 [28] = assay: Induction of autophagy in human RPMI8226 cells assessed as p62 protein expression at 36 uM after 6 to 96 hrs by Western blotting analysis; assay type: functional, cell-based
RPMI-8226 [29] = assay: Induction of apoptosis in human RPMI8226 cells assessed as early/late apoptotic cells at 36 uM after 48 hrs by annexin V/propidium iodide staining-based flow cytometric analysis in presence of alpha-tocopherol; assay type: functional, cell-based
RPMI-8226 [30] = assay: Induction of apoptosis in human RPMI8226 cells assessed as early apoptotic cells at 36 uM after 48 hrs by annexin V/propidium iodide staining-based flow cytometric analysis; assay type: functional, cell-based
RPMI-8226 [31] = assay: Induction of apoptosis in human RPMI8226 cells assessed as early apoptotic cells at 36 uM after 24 hrs by annexin V/propidium iodide staining-based flow cytometric analysis; assay type: functional, cell-based
RPMI-8226 [32] = assay: Induction of apoptosis in human RPMI8226 cells assessed as early apoptotic cells at 36 uM after 24 hrs by annexin V/propidium iodide staining-based flow cytometric analysis in presence of alpha-tocopherol; assay type: functional, cell-based

COc1ccc(CN2CCN(Cc3ccccc3)[C@@H](CO)C2)cc1
Ratio Ki [1]: 5.8 | Ki [2]: 70 nM

COc1cccc2c1CCCC2CCCN1CCN(C2CCCCC2)CC1 (stereo unspecified)
IC50 (RPMI-8226 [3]): 9290 nM | Ki [4]: 0.28 nM

OCC[C@H]1CN(CC2CCCCC2)CCN1Cc1ccc(-c2ccccc2)cc1
Activity (RPMI-8226 [5]): 21% | Activity (RPMI-8226 [6]): 18% | Activity (RPMI-8226 [7]): Active | Activity (RPMI-8226 [8]): inactive | Activity (RPMI-8226 [9]): tde | Activity (RPMI-8226 [10]): tde | Activity (RPMI-8226 [11]): inactive | Activity (RPMI-8226 [12]): Active | Activity (RPMI-8226 [13]): Active | Activity (RPMI-8226 [14]): tde | Activity (RPMI-8226 [15]): tde | Activity (RPMI-8226 [16]): tde | Activity (RPMI-8226 [17]): Active | Activity (RPMI-8226 [18]): Active | Activity (RPMI-8226 [19]): inactive | Activity (HL-60): inactive | Activity (RPMI-8226 [3]): Dose-dependent effect | IC50 (RPMI-8226 [3]): 21300 nM | Ratio Ki (RPMI-8226 [20]): 1.3 | Ratio Ki [1]: 20.8 | Ki [21]: 43 nM | Ki [22]: 73 nM | Ki [23]: 34 nM | Ki [24]: 3.5 nM | Activity (RPMI-8226 [25]): tde | Activity (RPMI-8226 [26]): Active | Activity (RPMI-8226 [27]): Active | Activity (RPMI-8226 [28]): inactive | Activity (RPMI-8226 [29]): inactive | Activity (RPMI-8226 [30]): inactive | Activity (RPMI-8226 [31]): Active | Activity (RPMI-8226 [32]): Active

Reference: ChEMBL document CHEMBL3102830, “Involvement of apoptosis and autophagy in the death of RPMI 8226 multiple myeloma cells by two enantiomeric sigma receptor ligands” (Bioorg Med Chem, 2014)
